Assay results reported in US7138361B2, “Herbicidal heterocycles” (E. I. du Pont de Nemours and Company, priority 2000, dated 2006).

Experiments:
Format in all cases: in vivo
corn (Zea mays) [1] = assay: Test C preemergence
Summary of the method: (§1)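 Formulation: non-phytotoxic solvent mix incl. surfactant. Pre: applied right after planting. Post: 1–4-leaf seedlings. Read: visual 0–100, day 12–14, greenhouse.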

[2] = system: crabgrass (Digitaria sanguinalis); assay: Test C preemergence
Summary of the method: as §1

Nightshade = assay: Test C preemergence
[3] = system: woolly cupgrass (Eriochloa villosa); assay: Test C preemergence
Summary of the method: as §1

soybean (Glycine max) = assay: Test C preemergence
Summary of the method: as §1

[4] = system: velvetleaf (Abutilon theophrasti); assay: Test C preemergence
Summary of the method: as §1

[5] = system: morningglory (Ipomoea hederacea); assay: Test C preemergence
Summary of the method: as §1

[6] = system: goosegrass (Eleusine indica); assay: Test C preemergence
Summary of the method: as §1

kochia (Kochia scoparia) = assay: Test C preemergence
Summary of the method: as §1

[7] = system: lambsquarters (Chenopodium album); assay: Test C preemergence
Summary of the method: as §1

[8] = system: cocklebur (Xanthium strumarium); assay: Test C preemergence
Summary of the method: as §1

[9] = system: johnsongrass (Sorghum halepense); assay: Test C preemergence
Summary of the method: as §1

[10] = system: Surinam grass (Brachiaria decumbens); assay: Test C preemergence
Summary of the method: as §1

corn (Zea mays) [11] = assay: Test B postemergence; settings: 13 to 15 days
Summary of the method: (§2)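 Pre: seeded pots sprayed, chemical in non-phytotoxic solvent/surfactant mix. Post: plants 2–18 cm, 1–4 leaf, same formulation. Greenhouse 13–15 d; visual % control vs untreated, 0–100 scale.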

[12] = system: velvetleaf (Abutilon theophrasti); assay: Test B postemergence; settings: 13 to 15 days
Summary of the method: as §2

[13] = system: lambsquarters (Chenopodium album); assay: Test B postemergence; settings: 13 to 15 days
Summary of the method: as §2

[14] = system: morning glory (Ipomoea hederacea); assay: Test B postemergence; settings: 13 to 15 days
Summary of the method: as §2

[15] = system: Surinam grass (Brachiaria decumbens); assay: Test B postemergence; settings: Rate 500 g/ha, scale 0 to 100, 0 is no effect, 100 is complete control, 13 to 15 days
Summary of the method: as §2

[16] = system: barnyardgrass (Echinochloa crus-galli); assay: Test B postemergence; settings: 13 to 15 days
Summary of the method: as §2

[17] = Preemergence, Rate 500 g/ha, scale 0 to 100
[18] = Rate 62 g/ha, scale 0 to 100, 0 no effect, 100 complete control
[19] = preemergence, Rate 250 g/ha, visual evaluation after 12 to 14 days
[20] = preemergence, Rate 125 g/ha, scale 0 to 100, 0 no effect, 100 complete control
[21] = Rate 125 g/ha, scale 0 (no effect) to 100 (complete control)
[22] = Rate 500 g/ha, scale 0 to 100, 0 is no effect, 100 is complete control

For `CC(C)(C)c1ccn(C2CCN(c3cccc(C(F)(F)F)c3)C2=S)n1` (centres unmarked) [Compound 22], the “Plant response rating, Corn” value (corn (Zea mays) [1]; [17]) was 30, the “Plant response rating, Corn” value (corn (Zea mays) [1]; [18]) was 20 and the “Plant response rating (0 to 100), Corn” value (corn (Zea mays) [1]; [19]) was 20. The “Plant response rating, Corn” value (corn (Zea mays) [1]; [20]) was 20, the “Plant response rating, Crabgrass” value [2, 17] was 100 and the “Plant response rating, Crabgrass” value [2, 18] was 50. The “Plant response rating (0 to 100), Crabgrass” value [2, 19] was 100, the “Plant response rating, Crabgrass” value [2, 20] was 100 and the “Plant response rating, Nightshade” value (Nightshade; [18]) was 0. The “Plant response rating, Nightshade” value (Nightshade; Rate 125 g/ha, scale 0 to 100, 0 no effect, 100 complete control) was 0, the “Plant response rating, Nightshade” value (Nightshade; Rate 500 g/ha, scale 0 to 100) was 80 and the “Plant response rating, Cupgrass, Woolly” value [3, 17] was 100. For the same molecule, the “Plant response rating, Cupgrass, Woolly” value [3, 18] was 40, the “Plant response rating (0 to 100), Cupgrass, Woolly” value [3, 19] was 100 and the “Plant response rating, Cupgrass, Woolly” value [3, 20] was 70. The “Plant response rating, Soybean” value (soybean (Glycine max); [17]) was 40, the “Plant response rating, Soybean” value (soybean (Glycine max); [18]) was 30 and the “Plant response rating (0 to 100), Soybean” value (soybean (Glycine max); [19]) was 40. For the same molecule, the “Plant response rating, Soybean” value (soybean (Glycine max); [20]) was 40, the “Plant response rating, Velvetleaf” value [4, 17] was 0 and the “Plant response rating, Velvetleaf” value [4, 18] was 0. The “Plant response rating (0 to 100), Velvetleaf” value [4, 19] was 0, the “Plant response rating, Velvetleaf” value [4, 20] was 0 and the “Plant response rating, Morningglory” value [5, 17] was 0. For the same molecule, the “Plant response rating, Morningglory” value [5, 18] was 0, the “Plant response rating (0 to 100), Morningglory” value [5, 19] was 0 and the “Plant response rating, Morningglory” value [5, 20] was 0. The “Plant response rating, Goosegrass” value [6, 17] was 100, the “Plant response rating, Goosegrass” value [6, 18] was 90 and the “Plant response rating (0 to 100), Goosegrass” value [6, 19] was 100. The “Plant response rating, Goosegrass” value [6, 20] was 90, the “Plant response rating, Kochia” value (kochia (Kochia scoparia); [17]) was 100 and the “Plant response rating, Kochia” value (kochia (Kochia scoparia); [18]) was 100. The “Plant response rating (0 to 100), Kochia” value (kochia (Kochia scoparia); [19]) was 100, the “Plant response rating, Kochia” value (kochia (Kochia scoparia); [20]) was 100 and the “Plant response rating, Lambsquarters” value [7, 17] was 100. For the same molecule, the “Plant response rating, Lambsquarters” value [7, 18] was 100, the “Plant response rating (0 to 100), Lambsquarters” value [7, 19] was 100 and the “Plant response rating, Lambsquarters” value [7, 20] was 100. The “Plant response rating, Cocklebur” value [8, 17] was 0, the “Plant response rating, Cocklebur” value [8, 18] was 0 and the “Plant response rating (0 to 100), Cocklebur” value [8, 19] was 0. The “Plant response rating, Cocklebur” value [8, 20] was 0, the “Plant response rating, Johnsongrass” value [9, 17] was 40 and the “Plant response rating, Johnsongrass” value [9, 18] was 20. The “Plant response rating (0 to 100), Johnsongrass” value [9, 19] was 40, the “Plant response rating, Johnsongrass” value [9, 20] was 30 and the “Plant response rating, Surinam grass” value [10, 17] was 90. The “Plant response rating, Surinam grass” value [10, 18] was 0, the “Plant response rating (0 to 100), Surinam grass” value [10, 19] was 60 and the “Plant response rating, Surinam grass” value [10, 20] was 40. For the same molecule, the “Plant response rating, Corn” value (corn (Zea mays) [11]; [21]) was 0, the “Plant response rating, Corn” value (corn (Zea mays) [11]; [22]) was 0 and the “Plant response rating, Velvetleaf” value [12, 21] was 20. For the same molecule, the “Plant response rating, Velvetleaf” value [12, 22] was 30, the “Plant response rating, Lambsquarters” value [13, 21] was 90 and the “Plant response rating, Lambsquarters” value [13, 22] was 90. The “Plant response rating, Morningglory” value [14, 21] was 30, the “Plant response rating, Morningglory” value [14, 22] was 30 and the “Plant response rating, Surinam grass” value [15] was 20. For the same molecule, the “Plant response rating, Barnyardgrass” value [16, 21] was 0 and the “Plant response rating, Barnyardgrass” value [16, 22] was 80.
